Reference: US20140171417A1, “TRICYCLIC COMPOUNDS” (NOVARTIS AG, priority 2012, published 2014)

Molecular target: T1, CFTR (Homo sapiens, UniProt P13569)
T1 construct: expressed in transfected cells
Assay: IonWorks Quattro assay (CFTR Inhibitor Assay), whole-cell planar patch clamp
Type: cell-based
Conditions: inward current (−100 mV); CHO cells stably expressing WT-CFTR; CFTR activated by 10 μM forskolin; test compound incubated 10 min
Description: CFTR activity can be quantified by electrophysiology methods, using the whole-cell configuration of the patch clamp technique (Hamill O, Marty A, Neher E, Sakmann B and Sigworth F. ‘Improved patch-clamp techniques for high resolution current recording from cells and cell-free membrane patches.’ Pflugers Archive 1981 391: 85-100). This assay directly measures the currents associated with chloride flow through CFTR channels whilst either maintaining or adjusting the transmembrane voltage. This assay can use either single glass micropipettes or parallel planar arrays to measure CFTR activity from native or recombinant cell systems. Currents measured using parallel planar arrays can be quantified using an appropriately equipped instrument such as the IonWorks Quattro (Molecular Devices Corporation, Sunnyvale, Calif.). The Quattro system can measure CFTR currents from either a single cell per recording well (HT configuration) or alternatively from a population of 64 cells per well (Population Patch Clamp PPC) (Finkel A, Wittel A, Yang N, Handran S, Hughes J, Costantin J. ‘Population patch clamp improves data consistency and success rates in the measurement of ionic currents.’ J Biomol Screen. 2006 August; 11 (5):488-96).
Chinese hamster ovary (CHO) cells stably expressing WT-CFTR channels were used for the IonWorks Quattro experiments. Cells were maintained at 37° C. in 5% v/v CO2 at 100% humidity in MEM alpha medium supplemented with 10% (v/v) FCS, 100 U/mL Penicillin/Streptomycin, and 100 μg/L methotrexate. For experiments, cells were grown in 225 cm^2 tissue culture flasks until almost confluent. Cells were removed from the flask using trypsin-EDTA and resuspended in extracellular recording solution for immediate experimentation.
Cells, at a density of 1.5-2 million per mL, were placed on the Quattro system, added to the planar patch plate and seals allowed to establish for 5-10 mins. After assessing seal resistances (typically >50 MΩ), whole-cell access was obtained by perforation with 100 μg/mL amphotericin B. Baseline currents were measured by a pre-compound scan obtained by application of a voltage ramp from −100 to +100 mV. CFTR was activated by the addition of 10 μM forskolin to each of the 384 wells of the patch plate. After 5 min incubation the post-compound 1 currents were measured, again by application of a voltage ramp from −100 to +100 mV. Test compounds, diluted from 10 mM stocks in DMSO in extracellular solution were then added to the patch plate and were incubated for a further 10 min. The post-compound 2 currents were measured by the application of the same voltage ramp from −100 to +100 mV. The inhibition of CFTR was determined from the difference in current between the forskolin addition (post-compound 1) and the test compound (post-compound 2). This was determined at both −100 mV and +100 mV which represents the inward and outward current respectively.
Extracellular solution (ECS): 145 mM NaCl, 4 mM CsCl, 5 mM D-glucose, 10 mM TES, 1 mM CaCl2, 1 mM MgCl2, pH 7.4 NaOH
Intracellular solution (ICS): 113 mM L-Aspartic acid, 113 mM CsOH, 27 mM CsCl, 1 mM NaCl, 1 mM MgCl2, 1 mM EGTA, 10 mM TES. pH 7.2 with CsOH. Filter sterilized before use.

T1 sequence (P13569 whole entry): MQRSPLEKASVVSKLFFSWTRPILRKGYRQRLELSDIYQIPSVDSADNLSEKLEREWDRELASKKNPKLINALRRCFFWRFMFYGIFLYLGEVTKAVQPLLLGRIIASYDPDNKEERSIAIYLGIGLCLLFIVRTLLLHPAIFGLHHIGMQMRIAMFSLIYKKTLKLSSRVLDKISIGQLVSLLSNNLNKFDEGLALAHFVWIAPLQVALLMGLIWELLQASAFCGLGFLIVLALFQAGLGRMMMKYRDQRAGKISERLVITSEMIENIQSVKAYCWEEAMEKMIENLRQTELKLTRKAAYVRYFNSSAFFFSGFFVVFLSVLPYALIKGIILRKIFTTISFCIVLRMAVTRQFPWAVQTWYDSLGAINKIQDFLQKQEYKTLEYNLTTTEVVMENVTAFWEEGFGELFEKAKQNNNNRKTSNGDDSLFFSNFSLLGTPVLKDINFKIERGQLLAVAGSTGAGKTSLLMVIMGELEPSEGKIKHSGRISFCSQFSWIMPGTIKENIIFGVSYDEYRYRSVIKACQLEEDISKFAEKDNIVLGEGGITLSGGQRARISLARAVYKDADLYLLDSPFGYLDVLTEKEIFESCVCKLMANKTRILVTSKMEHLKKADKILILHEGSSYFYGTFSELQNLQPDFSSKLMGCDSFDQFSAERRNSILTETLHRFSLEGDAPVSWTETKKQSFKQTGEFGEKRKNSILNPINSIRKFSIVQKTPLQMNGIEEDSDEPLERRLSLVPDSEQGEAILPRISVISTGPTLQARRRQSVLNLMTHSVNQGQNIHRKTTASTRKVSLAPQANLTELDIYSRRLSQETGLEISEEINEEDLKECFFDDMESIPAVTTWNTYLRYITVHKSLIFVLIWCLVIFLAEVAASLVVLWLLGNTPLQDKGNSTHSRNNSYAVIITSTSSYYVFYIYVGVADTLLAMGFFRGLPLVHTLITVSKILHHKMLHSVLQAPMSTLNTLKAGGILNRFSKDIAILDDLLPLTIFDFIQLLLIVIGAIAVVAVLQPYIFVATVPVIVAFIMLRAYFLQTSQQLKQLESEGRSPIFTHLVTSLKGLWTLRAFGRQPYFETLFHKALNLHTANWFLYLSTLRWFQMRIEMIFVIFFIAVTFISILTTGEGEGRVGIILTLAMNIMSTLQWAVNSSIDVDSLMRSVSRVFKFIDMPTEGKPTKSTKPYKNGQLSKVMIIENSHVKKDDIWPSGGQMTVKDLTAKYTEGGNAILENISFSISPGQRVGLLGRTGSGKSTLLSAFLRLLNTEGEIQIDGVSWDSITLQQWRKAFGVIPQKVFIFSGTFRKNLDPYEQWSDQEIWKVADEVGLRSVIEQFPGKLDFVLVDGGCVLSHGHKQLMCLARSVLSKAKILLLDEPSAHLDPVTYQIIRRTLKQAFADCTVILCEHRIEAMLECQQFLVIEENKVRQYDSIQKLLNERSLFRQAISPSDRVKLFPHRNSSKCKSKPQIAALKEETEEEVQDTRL

SMILES	IC50
CCOc1cccc(-c2c3c(=O)n(C)c(=O)n(C)c3c3n2CCSC3c2ccc(Cl)o2)c1 (single isomer, unassigned) [Example 15.12, 10-(5-Chlorofuran-2-yl)-5-(3-ethoxyphenyl)-1,3-dimethyl-7,8-dihydro-1H-pyrimido[4′,5′:3,4]pyrrolo[2,1-c][1,4]thiazine-2,4(3H,10H)-dione]	9.27 µM
COc1cccc(-c2c3c(=O)n(C)c(=O)n(C)c3c3n2CCSC3c2ccc(Cl)o2)c1 (single isomer, unassigned) [Example 15.13, 10-(5-Chlorofuran-2-yl)-5-(3-methoxyphenyl)-1,3-dimethyl-7,8-dihydro-1H-pyrimido[4′,5′:3,4]pyrrolo[2,1-c][1,4]thiazine-2,4(3H,10H)-dione]	0.62 µM
Cc1csc(-c2c3c(=O)n(C)c(=O)n(C)c3c3n2C[C@H](CO)S[C@H]3c2ccc(Cl)o2)n1 (single isomer, unassigned) [Example 17, 10-(5-chlorofuran-2-yl)-8-(hydroxymethyl)-1,3-dimethyl-5-(4-methylthiazol-2-yl)-7,8-dihydro-1H-pyrimido[4′,5′:3,4]pyrrolo[2,1-c][1,4]thiazine-2,4(3H,10H)-dione]	0.1 µM
Cn1ccc(-c2c3c(=O)n(C)c(=O)n(C)c3c3n2C[C@H](CO)S[C@H]3c2ccc(Cl)o2)n1 (single isomer, unassigned) [Example 17.1, 10-(5-Chlorofuran-2-yl)-8-(hydroxymethyl)-1,3-dimethyl-5-(1-methyl-1H-pyrazol-3-yl)-7,8-dihydro-1H-pyrimido[4′,5′:3,4]pyrrolo[2,1-c][1,4]thiazine-2,4(3H,10H)-dione]	0.23 µM
Cc1nc(-c2c3c(=O)n(C)c(=O)n(C)c3c3n2C[C@H](CO)S[C@H]3c2ccc(Cl)o2)cs1 (single isomer, unassigned) [Example 17.2, 10-(5-Chlorofuran-2-yl)-8-(hydroxymethyl)-1,3-dimethyl-5-(2-methylthiazol-4-yl)-7,8-dihydro-1H-pyrimido[4′,5′:3,4]pyrrolo[2,1-c][1,4]thiazine-2,4(3H,10H)-dione]	0.24 µM
Cc1csc(-c2c3c(=O)n(C)c(=O)n(C)c3c3n2C[C@H](CN)S[C@H]3c2ccc(Cl)o2)n1 (single isomer, unassigned) [Example 19, 8-(aminomethyl)-10-(5-chlorofuran-2-yl)-1,3-dimethyl-5-(4-methylthiazol-2-yl)-7,8-dihydro-1H-pyrimido[4′,5′:3,4]pyrrolo[2,1-c][1,4]thiazine-2,4(3H,10H)-dione]	5.38 µM
Cn1c(=O)c2c(-c3cccc(C#N)c3)n3c(c2n(C)c1=O)C(c1nc(Cl)cs1)CC3 (single isomer, unassigned) [Example 20a, 3-(9-(4-chlorothiazol-2-yl)-1,3-dimethyl-2,4-dioxo-2,3,4,7,8,9-hexahydro-1H-pyrimido[4,5-a]pyrrolizin-5-yl)benzonitrile]	0.27 µM
Cc1csc(C2c3c4c(c(-c5cccc(C#N)c5)n3CC2(C)C)c(=O)n(C)c(=O)n4C)n1 (single isomer, unassigned) [Example 21.8, 3-(1,3,8,8-Tetramethyl-9-(4-methylthiazol-2-yl)-2,4-dioxo-2,3,4,7,8,9-hexahydro-1H-pyrimido[4,5-a]pyrrolizin-5-yl)benzonitrile]	1.39 µM
Cn1c(=O)c2c(-c3ccccc3)n3c(c2n(C)c1=O)C(c1nc(Cl)cs1)C(C)(C)C3 (single isomer, unassigned) [Example 21a, 9-(4-chlorothiazol-2-yl)-1,3,8,8-tetramethyl-5-phenyl-8,9-dihydro-1H-pyrimido[4,5-a]pyrrolizine-2,4(3H,7H)-dione]	0.33 µM
Cn1c(=O)c2c(-c3cccc(C#N)c3)n3c(c2n(C)c1=O)[C@H](c1nc(Cl)cs1)C[C@@H](CO)C3 (single isomer, unassigned) [Example 23.1a, 3-(10-(4-chlorothiazol-2-yl)-8-(hydroxymethyl)-1,3-dimethyl-2,4-dioxo-1,2,3,4,7,8,9,10-octahydropyrimido[4,5-a]indolizin-5-yl)benzonitrile]	0.1 µM
Cn1c(=O)c2c(-c3cccc(F)c3)n3c(c2n(C)c1=O)[C@H](c1nc(Cl)cs1)C[C@@H](CO)C3 (single isomer, unassigned) [Example 23a, 10-(4-chlorothiazol-2-yl)-5-(3-fluorophenyl)-8-(hydroxymethyl)-1,3-dimethyl-7,8,9,10-tetrahydropyrimido[4,5-a]indolizine-2,4(1H,3H)-dione]	0.05 µM
Cc1ccc([C@@H]2CC[C@@H](Cn3nccn3)n3c(-c4ccccc4)c4c(=O)n(C)c(=O)n(C)c4c32)o1 (single isomer, unassigned) [Example 24]	1.74 µM
COCC(=O)NC[C@H]1Cn2c(-c3nc(C)cs3)c3c(=O)n(C)c(=O)n(C)c3c2[C@H](c2ccc(Cl)o2)S1 (single isomer, unassigned) [Example 26.1a, N-((10-(5-chlorofuran-2-yl)-1,3-dimethyl-5-(4-methylthiazol-2-yl)-2,4-dioxo-2,3,4,7,8,10-hexahydro-1H-pyrimido[4′,5′:3,4]pyrrolo[2,1-c][1,4]thiazin-8-yl)methyl)-2-methoxyacetamide]	0.23 µM
CC(=O)NC[C@H]1Cn2c(-c3nc(C)cs3)c3c(=O)n(C)c(=O)n(C)c3c2[C@H](c2ccc(Cl)o2)S1 (single isomer, unassigned) [Example 26.3a, N-((10-(5-chlorofuran-2-yl)-1,3-dimethyl-5-(4-methylthiazol-2-yl)-2,4-dioxo-2,3,4,7,8,10-hexahydro-1H-pyrimido[4′,5′:3,4]pyrrolo[2,1-c][1,4]thiazin-8-yl)methyl)acetamide]	0.45 µM
Cc1csc(-c2c3c(=O)n(C)c(=O)n(C)c3c3n2C[C@H](CNS(C)(=O)=O)S[C@H]3c2ccc(Cl)o2)n1 (single isomer, unassigned) [Example 26a, N-((10-(5-chlorofuran-2-yl)-1,3-dimethyl-5-(4-methylthiazol-2-yl)-2,4-dioxo-2,3,4,7,8,10-hexahydro-1H-pyrimido[4′,5′:3,4]pyrrolo[2,1-c][1,4]thiazin-8-yl)methyl)methanesulfonamide]	0.15 µM
Cc1csc(-c2c3c(=O)n(C)c(=O)n(C)c3c3n2C[C@@H](Cn2ccnc2)S[C@@H]3c2ccc(Cl)o2)n1 (single isomer, unassigned) [Example 28a, 8-((1H-imidazol-1-yl)methyl)-10-(5-chlorofuran-2-yl)-1,3-dimethyl-5-(4-methylthiazol-2-yl)-7,8-dihydro-1H-pyrimido[4′,5′:3,4]pyrrolo[2,1-c][1,4]thiazine-2,4(3H,10H)-dione]	0.11 µM
Cc1csc(-c2c3c(=O)n(C)c(=O)n(C)c3c3n2C[C@@H](CN2CCCC2=O)S[C@@H]3c2ccc(Cl)o2)n1 (single isomer, unassigned) [Example 30.1a, 10-(5-chlorofuran-2-yl)-1,3-dimethyl-5-(4-methylthiazol-2-yl)-8-((2-oxopyrrolidin-1-yl)methyl)-7,8-dihydro-1H-pyrimido[4′,5′:3,4]pyrrolo[2,1-c][1,4]thiazine-2,4(3H,10H)-dione]	0.25 µM
Cc1csc(-c2c3c(=O)n(C)c(=O)n(C)c3c3n2C[C@@H](CN2CCOC2=O)S[C@@H]3c2ccc(Cl)o2)n1 (single isomer, unassigned) [Example 30a, 10-(5-chlorofuran-2-yl)-1,3-dimethyl-5-(4-methylthiazol-2-yl)-8-((2-oxooxazolidin-3-yl)methyl)-7,8-dihydro-1H-pyrimido[4′,5′:3,4]pyrrolo[2,1-c][1,4]thiazine-2,4(3H,10H)-dione]	0.16 µM
